# Measurements taken from patent US11345914B2, “Composition for delivering nucleic acid and nucleic acid-containing composition” (TOKYO UNIVERSITY OF PHARMACY AND LIFE SCIENCES, priority 2017, dated 2022).
# Tested on: CIA (Collagen-Induced Arthritis) Mouse
# Assay: In vivo evaluation arthritis treatment effect of CIA mice
# Conditions: until 15th day, siRNA (RelA) 20 μg/day tail vein (composition as Example 24, N/P 20), MTX 90 μg intraperitoneal
# Experimental: Under ice-cooling, while adding an equal amount of type II collagen solution (2 mg/mL) dropwise to complete Freund's adjuvant (CFA), the mixture was homogenized to prepare an emulsion. Similarly, while adding an equal amount of type II collagen solution (2 mg/mL) dropwise to incomplete Freund's adjuvant (IFA), the mixture was homogenized to prepare an emulsion. The prepared emulsion was confirmed to have formed a w/o type emulsion by maintaining a sphere even when it was dropped on the water surface, and was used in the experiment.
# Using 8-weeks old male DBA/1J mice, CIA mice were prepared. In the following, the schedule for preparing CIA mice is shown. 100 μL of the emulsion obtained from type II collagen and CFA prepared at −21′ day was intradermally administered to the tail root portion to carry out induction of the first immunization. 100 μL of the emulsion obtained from type II collagen and […] prepared at 0th day was similarly intradermally administered to carry out additional induction of the immunization. At this time, the intradermal administration was carried out reliably was confirmed by the fact that the administered site was protruded with white. […]
# Thickening of the hindlimb ankle joint portion was measured by using a micrometer. […]
# Clinical score was calculated as follows. […]
compound,measurement,setting,value
"CN(Cc1cnc2nc(N)nc(N)c2n1)c1ccc(C(=O)N[C@@H](CCC(=O)O)C(=O)O)cc1 [MTX, methotrexate]",thickening increasing rate of the hindlimbs,FIG. 4,thickening of the hindlimbs was admitted
same,clinical score,FIG. 5,remarkable increase in the clinical score was admitted
